According to PMC3024946, “Hydroxyproline-containing collagen analogs trigger the release and activation of collagen-sequestered proMMP-2 by competition with prodomain-derived peptide P33-42” (Fibrogenesis & Tissue Repair, 2011):
Entries after “also recorded” stand apart in the source; their conditions may differ.

Columns and labels:
[1] = system: collagen type I (CI); experiment: SPR binding of MMPs to immobilized CI, nonactivating buffer; design: species or system human
Experimental: (§1) Sensor chip preparations and SPR measurements were performed using a BiacoreX device and the Bia-evaluation software (version 3.2; Biacore, Uppsala, Sweden). The pepsin-resistant triple-helical part of human fibrillar CI (100 μg/ml) in 10 mM acetate coupling buffer, pH 4.8, was immobilized to a dextran matrix-sensor chip at a flow rate of 5 μl/min, resulting in 5,500 resonance units from CI covalently linked via its primary amino groups. The control flow cell was prepared using the coupling buffer without CI. Surfaces were activated and blocked as described previously. Immediately after thawing, pro- and actMMP-2 and pro- and actMMP-9 were diluted to 100 to 250 nM in MMP activity buffer or in PBS and 0.05% (vol/vol) Tween 20. For SPR measurements, flow rates were 10 μl/min at 25°C, and equilibrium was typically reached after 30 to 60 s. The effects of (GPO)10, GAP, (POG)5, (GPP)10 and P33-42 on MMP-2 and MMP-9 binding to CI and their enzymatic activity were determined by adding the binding competitors to the (pro- and act)MMP-2 and MMP-9 solution in 10- to 150-fold molar excesses. Effects independent of MMP-2 and MMP-9 activity were monitored in the presence of Ro 28-2653 (1 μM) during SPR analysis. The gelatinase inhibitor Ro 28-2653 was a generous gift from H.-W. Krell (Roche, Grenzach-Wyhlen, Germany). Sensor surfaces were regenerated with 10 mM glycine, pH 2.3, for 1 min between runs, and sensor chips were used up to 25 times. Kinetic parameters were analyzed using the 1:1 binding model with drifting baseline and subtraction of the control flow cell binding from sensorgrams obtained with immobilized CI. Binding constants (Kd) were calculated from the association (ka) and dissociation rates (kd) obtained from individual binding curves at different concentrations. Individual drifts of the resonance signal were fitted locally, and χ^2 values of 0.2% to 1.0% of the maximum resonance value were considered good fits.

[2] = In situ binding of MMPs to fibrotic liver sections; design: species or system human; details: immunohistochemistry; 25 ng MMP, 30 min
Experimental: Human cirrhotic liver cryostat sections (5 μm) were air-dried and fixed in ice-cold acetone for 10 min. Tissue sections were rehydrated with PBS and incubated with 25 ng/50 μl of the respective proMMP and actMMP for 30 min or were left untreated. After thorough washing with PBS, antibodies specific for human MMP-9 (clone MAB911; R&D Systems, Minneapolis, MN, USA) and human MMP-2 (clone 75-7F7; Oncogene, Cambridge, MA, USA) were applied, and primary antibody binding was detected using the alkaline phosphatase-antialkaline phosphatase detection system (Dako, Hamburg, Germany). An irrelevant primary mouse antibody served as control. Nuclei were counterstained with Hemalaun, and slides were examined by standard light microscopy.

[3] = target: T1, proMMP-2 / CI (Homo sapiens, UniProt P08253); experiment: SPR, competition of proMMP-2 binding to CI, MMP activity buffer with Ro 28-2653
T1 construct: prodomain-containing proMMP-2 or proMMP-9; purchased Invitek
T1 sequence (P08253 30-660 limits assumed): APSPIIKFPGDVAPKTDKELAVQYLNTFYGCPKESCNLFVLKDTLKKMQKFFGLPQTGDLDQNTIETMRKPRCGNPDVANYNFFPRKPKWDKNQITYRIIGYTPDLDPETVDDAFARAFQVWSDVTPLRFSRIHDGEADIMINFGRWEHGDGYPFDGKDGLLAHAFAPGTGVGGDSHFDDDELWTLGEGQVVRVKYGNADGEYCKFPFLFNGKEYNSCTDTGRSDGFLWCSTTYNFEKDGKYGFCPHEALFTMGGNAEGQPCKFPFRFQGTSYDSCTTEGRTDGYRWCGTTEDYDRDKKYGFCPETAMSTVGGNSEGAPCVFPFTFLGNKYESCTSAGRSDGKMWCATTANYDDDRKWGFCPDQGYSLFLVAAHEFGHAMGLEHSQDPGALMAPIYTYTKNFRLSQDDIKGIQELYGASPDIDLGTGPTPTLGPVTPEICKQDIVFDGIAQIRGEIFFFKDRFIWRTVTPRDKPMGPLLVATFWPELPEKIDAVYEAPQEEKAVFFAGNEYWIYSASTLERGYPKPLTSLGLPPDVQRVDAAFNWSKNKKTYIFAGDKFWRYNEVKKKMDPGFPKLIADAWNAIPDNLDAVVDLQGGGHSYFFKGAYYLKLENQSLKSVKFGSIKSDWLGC
Experimental: as §1

[4] = system: ProMMP-2; experiment: Substrate gel zymography of treated proMMP-2; type: biochemical, human; details: 50 ng proMMP-2, 2-h incubation at room temperature
Experimental: Samples containing MMP-2 were diluted with zymogram sample buffer (Bio-Rad, Munich, Germany) and separated on homogeneous 10% SDS-PAGE gels containing 1 mg/ml (wt/vol) gelatine (Bio-Rad), washed with excess MMP activity buffer containing 2.5% (vol/vol) Triton X-100 to remove SDS, and incubated with MMP activity buffer for 24 h. Gels were stained with Coomassie Blue R-250. Gels showing proteolytic bands corresponding to proMMP-2 (72 kDa) or actMMP-2 (62 kDa) were scanned (Plustek, Norderstedt, Germany) and analyzed from inverted grayscale images.

[5] = system: ProMMP-2; experiment: DQ-gelatine degradation assay with MMP-2; type: biochemical, human; details: for DQ-gelatine cleavage by proMMP-2: 5 h at 25°C
Experimental: (§2) Enzymatic activities of MMPs were studied spectrofluorimetrically by cleavage of fluorogenic substrates in MMP activity buffer within 2 to 5 h. For gelatinases 800 nM MCA-Pro-Leu-Gly-Leu-Dnp-Dap-Ala-Arg-NH2 (λex/em 328/393 nm; Bachem, Bubendorf, Switzerland) or 10 μg/ml DQ-gelatine were used, according to the method described by Knight et al. for collagenases 800 nM MCA-Pro-Cha-Gly-Nva-His-Ala-Dpa-NH2 (λex/em 280/360 nm; Anaspec, San José, CA, USA). In some experiments, proMMP-2 was fully activated in the presence of 1 mM APMA prior to the kinetic measurements. A quantity of 50 ng pro- or actMMP-2 alone or mixed with 10- to 150-fold molar excesses of (GPO)10, GAP, P33-42 or mixtures of (GPO)10 and P33-42, were added to CI-coated, BSA-coated (1 μg/well both) or uncoated wells containing 150 μl of the respective substrate solution. The peptide P33-42 was purchased from the Institute of Biochemistry (Humboldt-University, Berlin, Germany). The influence of CI on MMP-2 enzymatic activity against the quenched fluorescent substrate could be excluded. Background subtraction (measurement without MMPs) was applied to all curves. All experiments were performed with a fluorescence microplate reader (Molecular Devices, Sunnyvale, CA, USA) and black 96-well microtiter plates with a clear bottom (Greiner bio-one, Frickenhausen, Germany).

[6] = system: MMP-9; experiment: Effect of P33-42 on MMP-9; type: biochemical; details: MMP devoid of prodomain-CBD interaction; data not shown
Experimental: as §2

[7] = system: MMP-13; experiment: Effect of P33-42 on MMP-13; type: biochemical; details: MMP without CBD; data not shown
Experimental: as §2

[8] = target: Col-3 module of the CBD of MMP-2; details: ref [7]; cited from earlier work
Description: Finally, we asked how (GPO)10 competes CBD-mediated binding of proMMP-2 to fibrillar collagen and thereby modulates binding as well as enzymatic activity and activation. We made use of the P33-42 peptide derived from the prodomain of MMP-2. […] Even at high molar ...

Substance	binding to CI relative to proMMP-9 ([1]; nonactivating conditions)	Off rate ([1]; without (GPO)10, MMP 100 nM, PBS, 0.05% Tween 20, 25°C, mean from at least three experiments)	Kd ([1]; without (GPO)10, MMP 100 nM, PBS, 0.05% Tween 20, 25°C, mean ± SD, at least three experiments)	binding to liver sections [2]	competition with proMMP-2 binding to CI ([3]; SPR, MMP activity buffer with Ro 28-2653)	increase of Kd of proMMP-2 binding to CI ([3]; high (up to 100-fold) molar excesses, 100-250 nM proMMP-2, 1 μM Ro 28-2653)	substrate zymography, prodomain-free actMMP-2 band [4]	DQ-gelatine cleavage by proMMP-2 ([5]; 50- to 100-fold molar excesses)	DQ-gelatine cleavage by proMMP-2 ([5]; 150-fold molar excess)	proMMP-2 activation ([5]; P33-42 alone, even at high molar excesses)	effect on inhibitory effect of (GPO)10 on MMP-2 activity ([5]; equimolar mixture of (GPO)10 and P33-42, 150-fold molar excess)	effect on (GPO)10-mediated activation of proMMP-2 ([5]; equimolar mixtures of (GPO)10 and P33-42, 50- to 100-fold molar excesses)	effect on MMP [6]	effect on MMP [7]	Kd [8]
ActMMP-9: 86-kDa activated form of MMP-9	sevenfold less effectively	0.76 s⁻¹	0.87 ± 0.39 µM	No significant binding	–	–	–	–	–	–	–	–	–	–	–
P33-42: MMP-2 prodomain-derived CBD-binding peptide (PIIKFPGDVA)	–	–	–	–	competed with proMMP-2 binding to CI; also recorded: only slightly inhibited proMMP-2 binding to CI	up to 50%	did not occur	no activating effect but a slight inhibitory effect	more enhanced inhibitory effect	did not activate proMMP-2; also recorded: did not affect proMMP-2 activation	the inhibitory effect of (GPO)10 on MMP-2 activity was diminished	prevented (GPO)10-mediated proMMP-2 activation; also recorded: drastically diminished the activating effect of (GPO)10 on proMMP-2; also recorded: blocked (GPO)10-mediated proMMP-2 activation	no effects	no effects	1600 µM
